From US20090270342A1, “IMMUNOREGULATORY AGENT” (priority 2006, published 2009)

Columns and labels:
IgA in feces = assay: Amount of IgA in feces of mice ingesting lactosucrose diet (Experiment 1); format: in vivo; settings: Lactosucrose 5% (w/w) diet
Method: An experiment for investigating the effect of lactosucrose ingestion on the enhancement of gut immunity was carried out by measuring the amount of IgA in feces of mice. Female BALB/c mice (six weeks old) were preliminary reared for one week on “AIN-93G”, containing 40% (w/w) of corn starch, 20% (w/w) of casein, 13.2% (w/w) of α-corn starch, 10% (w/w) of sucrose, 7% (w/w) of soybean oil, 5% (w/w) of cellulose, 3.5% (w/w) of mineral mixture, 1% (w/w) of vitamin mixture, 0.3% (w/w) of L-cystine, and 0.0014% (w/w) of hydroquinone, which is a standard purified diet for researching the nutrition of mice and rats published by American National Institute of Nutrition in 1993. Successively, “LS-90P”, a saccharide composition comprising 91.8% (w/w), onadrysolid basis, of lactosucrose commercialized by ENSUIKO Sugar Refining Co., Ltd., Tokyo, Japan, was incorporated into the above purified diet, in which corn starch equal to the amount of the saccharide composition comprising lactosucrose had been removed, to give a lactosucrose content of 5% (w/w), and five mice/group were allowed to ingest the resulting test diet freely. Mice, allowed to ingest “AIN-93G”, as the standard purified diet, were used as control. Then, fresh feces were collected from the mice at one week, two weeks, three weeks, and four weeks after starting the administration of the test diet and the control diet, and the amount of IgA in the feces was measured by ELISA using anti-IgA antibody (Mouse IgA ELISA Quantitation Kit produced by Bethyl Laboratories, Inc., Texas, USA). The amount of IgA was expressed by mg/g-wet feces and the average value of those from five mice was determined. The percentages in parentheses in Table 1 mean relative values to those of the control at respective weeks.

spleen cells = assay: Cytokine production by spleen cells of OVA-sensitized mice restimulated with OVA (Experiment 6); format: in vivo
Method: In order to investigate the effect of lactosucrose on systemic immunity, the ability for producing cytokines of spleen cells was measured. At two weeks after the second sensitization in Experiment 4, spleens were removed from the mice of the control group and the group administrated with lactosucrose and the spleen cells were adjusted to give a cell concentration of 1×10^7/ml, and then placed in a 24-well plate. At two days or four days after adding 50 μg/ml of OVA, the amounts of IFN-γ, interleukin-2 (IL-2), IL-4, interleukin-5 (IL-5), and IL-10 in the culture supernatant were determined by conventional EIAs using antibodies (commercialized by BD-Pharmingen) corresponding to those. The percentages in parentheses in Table 9 mean relative values to the concentrations of respective cytokines produced by spleen cells from the control mice.

[1] = Lactosucrose 5% (w/w) diet, 2 days after adding 50 μg/ml OVA
[2] = Lactosucrose 5% (w/w) diet, 4 days after adding 50 μg/ml OVA
[3] = Lactosucrose 5% (w/w), 2 days after
[4] = Lactosucrose 5% (w/w), 4 days after

OC[C@H]1O[C@@H](O[C@H]2[C@H](O)[C@@H](O)[C@@H](O[C@]3(CO)O[C@H](CO)[C@@H](O)[C@@H]3O)O[C@@H]2CO)[C@H](O)[C@@H](O)[C@H]1O [Lactosucrose, β-D-galactosyl-(1,4)-α-D-glucosyl-(1,2)-β-D-fructoside] was tested, and the “Amount of IgA in feces, relative value to control” value (from here on “Amount … relative value to control”) (IgA in feces; 1 week after) was “(232%)”, the “Amount of IgA in feces” value (IgA in feces; 1 week after (8 weeks old)) was 13 ± 2.6 mg/g and the “Amount … relative value to control” value (IgA in feces; 2 weeks after) was “(285%)”. The “Amount of IgA in feces” value (IgA in feces; 2 weeks after (9 weeks old)) was 5.7 ± 2.3 mg/g, the “Amount … relative value to control” value (IgA in feces; 3 weeks after) was “(543%)” and the “Amount of IgA in feces” value (IgA in feces; 3 weeks after (10 weeks old)) was 7.6 ± 1.4 mg/g. For the same compound, the “Amount … relative value to control” value (IgA in feces; 4 weeks after) was “(755%)”, the “Amount of IgA in feces” value (IgA in feces; 4 weeks after (11 weeks old)) was 8.3 ± 1.9 mg/g and the “IFN-γ produced by spleen cells” value (spleen cells; [1]) was 1.1 ± 0.19 IU/ml. For the same compound, the “IL-2 produced by spleen cells” value (spleen cells; [1]) was 290 ± 160 pg/mL, the “IL-4 produced by spleen cells” value (spleen cells; [1]) was 32 ± 10 pg/mL and the “IL-10 produced by spleen cells” value (spleen cells; [1]) was 0.83 ± 0.27 ng/mL. For the same compound, the “IFN-γ produced by spleen cells” value (spleen cells; [2]) was 2.9 ± 0.91 IU/ml, the “IL-4 produced by spleen cells” value (spleen cells; [2]) was 62 ± 31 pg/mL and the “IL-5 produced by spleen cells” value (spleen cells; [2]) was 1.3 ± 0.32 ng/mL. For the same compound, the “IL-10 produced by spleen cells” value (spleen cells; [2]) was 2.7 ± 0.32 ng/mL, the “IFN-γ produced by spleen cells, relative value to control” value (spleen cells; [3]) was “(113%)” and the “IL-2 produced by spleen cells, relative value to control” value (spleen cells; [3]) was “(78%)”. For the same compound, the “IL-4 produced by spleen cells, relative value to control” value (spleen cells; [3]) was “(107%)”, the “IL-10 produced by spleen cells, relative value to control” value (spleen cells; [3]) was “(126%)” and the “IFN-γ produced by spleen cells, relative value to control” value (spleen cells; [4]) was “(88%)”. For the same compound, the “IL-4 produced by spleen cells, relative value to control” value (spleen cells; [4]) was “(63%)”, the “IL-5 produced by spleen cells, relative value to control” value (spleen cells; [4]) was “(81%)” and the “IL-10 produced by spleen cells, relative value to control” value (spleen cells; [4]) was “(123%)”.
